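In this assay, cells in 96-well plates receive the compound at five concentrations for 48 hours. Endpoints are linearly interpolated between the surrounding concentrations. GI50 marks 50% less growth.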 Calls of active or inactive are those of the source. No stated cut-off is given here; in the data, active = GI50 up to about 1.1 µM and inactive = higher.

Among the test systems are SNB-75; EKVX; NCI/ADR-RES; OVCAR-3; UACC-62; A498; Malme-3M; HT-29; BT-549; COLO 205; ACHN; HL-60; MDA-MB-231; MDA-MB-435; SF-268; U-251; IGROV-1; SF-295; M14; HOP-92.
Common to all, as to assay: growth of human tumour cells (NCI), 48 h

As for `Cc1c(Cl)cc(C(C)(C)C)c(O)c1Cc1c(C)c(Cl)cc(C(C)(C)C)c1O`, the GI50 in the assay on SNB-75 is 1.5 µM (inactive); in the assay on EKVX it was 1.4 µM (inactive); with NCI/ADR-RES, 2.14 µM (inactive); in the assay with OVCAR-3, 0.436 µM (active); with UACC-62, 1.62 µM (inactive); in the assay on A498, 1.26 µM (inactive). In addition, the GI50 with Malme-3M was 0.406 µM (active); in the assay on HT-29, 1.54 µM (inactive); in the assay with BT-549 it was 2.81 µM (inactive); in the assay on COLO 205, 1.12 µM (active); in the assay with ACHN, 1.29 µM (inactive); with HL-60, 1.17 µM (inactive). For the same molecule, the GI50 in the assay with MDA-MB-231 is 1.65 µM (inactive); with MDA-MB-435 it was 2.06 µM (inactive); in the assay on SF-268, 1.74 µM (inactive); in the assay on U-251 it was 1.51 µM (inactive); in the assay with IGROV-1, 1.1 µM (active); with SF-295 it was 2.07 µM (inactive). Further, the GI50 is 2.42 µM (inactive) with M14 and 0.304 µM (active) in the assay with HOP-92.

Take `C=COC(=O)N[C@H]1CCc2cc(OC)c(OC)c(OC)c2-c2ccc(SC)c(=O)cc21`: the GI50 in the assay on SNB-75 is 0.0578 µM (active); with EKVX, 8.43 µM (inactive); with NCI/ADR-RES it was < 0.01 µM (active); in the assay with OVCAR-3, < 0.01 µM (active); in the assay with UACC-62 it was < 0.01 µM (active); in the assay with A498, < 0.01 µM (active). Besides, the GI50 in the assay with Malme-3M, in the assay with HT-29, in the assay on BT-549, in the assay on COLO 205, with ACHN and with HL-60 was < 0.01 µM (active) in each case. Also, the GI50 in the assay with MDA-MB-231, in the assay with MDA-MB-435, with SF-268, with U-251, with IGROV-1 and with SF-295 was < 0.01 µM (active) in each case. Besides, the GI50 in the assay on M14 and with HOP-92 was < 0.01 µM (active) each time.

For the molecule `COc1cc(C2c3cc4c(cc3OC(NC3CCCCC3)C2C)OCO4)cc(OC)c1OC` (stereo not given), the GI50 in the assay on SNB-75 was 0.223 µM (active); in the assay with EKVX, 4.47 µM (inactive); in the assay with NCI/ADR-RES, 0.296 µM (active); in the assay on OVCAR-3, 0.267 µM (active); in the assay with UACC-62, 0.379 µM (active); in the assay with A498, 0.681 µM (active). Besides, the GI50 was 0.321 µM (active) in the assay with Malme-3M; 0.383 µM (active) in the assay with HT-29; 0.649 µM (active) with BT-549; 0.241 µM (active) with COLO 205; 0.746 µM (active) in the assay with ACHN; 0.271 µM (active) in the assay with HL-60. The GI50 with MDA-MB-231 is 0.393 µM (active); in the assay on MDA-MB-435, 0.19 µM (active); in the assay on SF-268, 0.701 µM (active); with U-251, 0.467 µM (active); in the assay on IGROV-1 it was 0.665 µM (active); with SF-295 it was 0.203 µM (active). Also, the GI50 is 0.508 µM (active) in the assay on M14 and 2.65 µM (inactive) in the assay on HOP-92.

In the case of `CC(C)CC(NC(=O)OC(C)(C)C)C(=O)Nc1ccc(Nc2nc(F)nc(-c3c4ccccc4cn3C)n2)cc1` (stereo not given), the GI50 in the assay with SNB-75 was 47.1 µM (inactive); in the assay on EKVX it was 52.7 µM (inactive); with NCI/ADR-RES, > 100 µM (inactive); with OVCAR-3, 22.5 µM (inactive); with UACC-62, > 100 µM (inactive); in the assay with A498, 98.6 µM (inactive). The GI50 in the assay with Malme-3M is > 100 µM (inactive); with HT-29 it was 23.1 µM (inactive); in the assay on BT-549, > 100 µM (inactive); in the assay on COLO 205, 18.6 µM (inactive); with ACHN, 62.7 µM (inactive); with HL-60 it was 3.94 µM (inactive). The GI50 with MDA-MB-231 was 66.1 µM (inactive); in the assay on MDA-MB-435, > 100 µM (inactive); in the assay with SF-268, > 100 µM (inactive); in the assay on U-251, 43.9 µM (inactive); with IGROV-1, > 100 µM (inactive); in the assay on SF-295 it was > 81.7 µM (inactive). Besides, the GI50 in the assay with M14 is > 100 µM (inactive); in the assay with HOP-92 it was 52.2 µM (inactive).

Regarding `Cc1oc2c(Cl)cc(O)c(Cl)c2c2cccc1-2`, the GI50 in the assay with SNB-75 is 2.83 µM (inactive); in the assay with EKVX, 18.7 µM (inactive); in the assay on NCI/ADR-RES it was 28.8 µM (inactive); in the assay on OVCAR-3 it was 18.1 µM (inactive); with UACC-62, 28.6 µM (inactive); in the assay with A498, 42 µM (inactive). For the same molecule, the GI50 in the assay with Malme-3M is 25.7 µM (inactive); in the assay with HT-29 it was 35.2 µM (inactive); in the assay on BT-549 it was 23.6 µM (inactive); in the assay with COLO 205 it was 30.4 µM (inactive); in the assay with ACHN it was 40.6 µM (inactive); with HL-60, 25.8 µM (inactive). Besides, the GI50 in the assay on MDA-MB-231 was 33.6 µM (inactive); in the assay with MDA-MB-435, 20.1 µM (inactive); with SF-268 it was 34.9 µM (inactive); with U-251 it was 18.9 µM (inactive); in the assay with IGROV-1 it was 23.1 µM (inactive); in the assay on SF-295, 31.6 µM (inactive). The figures for the GI50 in the assay with M14 and in the assay with HOP-92 were 28.6 µM (inactive) and 14.9 µM (inactive), respectively.

Consider `O=C1O[C@H]2C3C4CCC(C4[C@@H]2I)[C@H]13` (stereo not given in full), for which the GI50 with SNB-75 is 60.3 µM (inactive); in the assay with EKVX, > 100 µM (inactive); in the assay on NCI/ADR-RES it was > 100 µM (inactive); in the assay with OVCAR-3 it was > 100 µM (inactive); in the assay with UACC-62 it was > 100 µM (inactive); in the assay on A498 it was > 100 µM (inactive). Moreover, the GI50 in the assay with Malme-3M, with HT-29, in the assay on BT-549, in the assay with COLO 205, in the assay on ACHN and in the assay with HL-60 was > 100 µM (inactive) throughout. Besides, the GI50 with MDA-MB-231, with MDA-MB-435, with SF-268, in the assay on U-251, with IGROV-1 and with SF-295 was > 100 µM (inactive) throughout. Further, the GI50 in the assay with M14 and in the assay on HOP-92 was > 100 µM (inactive) in each case.

`COC(=O)C1=C(C)NC(C)=C([N+](=O)[O-])C1c1cccc(NO)c1` (stereo not given): the GI50 is 6.89 µM (inactive) with SNB-75; 4.34 µM (inactive) in the assay on EKVX; 4.16 µM (inactive) in the assay with NCI/ADR-RES; 3.9 µM (inactive) with OVCAR-3; 6.55 µM (inactive) in the assay on UACC-62; 6.24 µM (inactive) with A498. In addition, the GI50 is 4.31 µM (inactive) in the assay with Malme-3M; 2.86 µM (inactive) in the assay on HT-29; 4.51 µM (inactive) in the assay on BT-549; 2.06 µM (inactive) in the assay on COLO 205; 3.1 µM (inactive) in the assay with ACHN; 2.8 µM (inactive) in the assay on HL-60. In addition, the GI50 is 3.64 µM (inactive) in the assay on MDA-MB-231; 1.98 µM (inactive) with MDA-MB-435; 6.01 µM (inactive) in the assay with SF-268; 5.22 µM (inactive) with U-251; 5.01 µM (inactive) with IGROV-1; 3.79 µM (inactive) in the assay with SF-295. Moreover, the GI50 was 3.44 µM (inactive) with M14 and 3.6 µM (inactive) in the assay with HOP-92.

As for `O=P(O)(O)CC1OC(CO)C(O)C1O` (stereo not given), the GI50 in the assay with SNB-75, with EKVX, with NCI/ADR-RES, in the assay with OVCAR-3, with UACC-62 and in the assay on A498 was > 100 µM (inactive) in each case. Moreover, the GI50 with Malme-3M, with HT-29, in the assay on BT-549, with COLO 205, in the assay on ACHN and in the assay with HL-60 was > 100 µM (inactive) each time. Moreover, the GI50 in the assay on MDA-MB-231, with MDA-MB-435, with SF-268, in the assay on U-251, with IGROV-1 and in the assay with SF-295 was > 100 µM (inactive) in each case. Moreover, the GI50 in the assay on M14 and in the assay with HOP-92 was > 100 µM (inactive) throughout.

As to `Cc1ccc(/C=N/Nc2ccccn2)s1`, the GI50 in the assay on SNB-75 is 36.7 µM (inactive); in the assay on EKVX, > 72.8 µM (inactive); in the assay on NCI/ADR-RES, > 40.6 µM (inactive); in the assay with OVCAR-3 it was > 55.7 µM (inactive); in the assay with UACC-62, > 100 µM (inactive); in the assay on A498 it was > 100 µM (inactive). Moreover, the GI50 was > 100 µM (inactive) in the assay on Malme-3M; > 67.8 µM (inactive) in the assay with HT-29; 81.3 µM (inactive) in the assay on BT-549; > 100 µM (inactive) in the assay on COLO 205; > 100 µM (inactive) in the assay with ACHN; > 76.7 µM (inactive) in the assay with HL-60. Besides, the GI50 in the assay on MDA-MB-231 was > 41.1 µM (inactive); in the assay with MDA-MB-435, > 100 µM (inactive); in the assay with SF-268, > 64.6 µM (inactive); with U-251, > 100 µM (inactive); in the assay on IGROV-1 it was > 100 µM (inactive); with SF-295, > 100 µM (inactive). In addition, the GI50 in the assay with M14 and with HOP-92 was > 100 µM (inactive) throughout.

Turning to `COC(=O)c1ccccc1C1CN=NC12Cc1c(C)cccc1C2=O` (stereo not given), the GI50 with SNB-75 was 94.4 µM (inactive); with EKVX it was > 100 µM (inactive); in the assay on NCI/ADR-RES it was 60.8 µM (inactive); in the assay on OVCAR-3 it was > 100 µM (inactive); in the assay with UACC-62 it was > 100 µM (inactive); in the assay on A498 it was > 100 µM (inactive). The GI50 in the assay on Malme-3M is > 100 µM (inactive); in the assay on HT-29 it was > 100 µM (inactive); in the assay with BT-549, > 100 µM (inactive); in the assay with COLO 205, > 100 µM (inactive); with ACHN, > 100 µM (inactive); in the assay on HL-60, 87.3 µM (inactive). For the same molecule, the GI50 with MDA-MB-231 is > 100 µM (inactive); in the assay with MDA-MB-435, > 100 µM (inactive); in the assay with SF-268, > 100 µM (inactive); in the assay on U-251, 80.7 µM (inactive); with IGROV-1 it was > 100 µM (inactive); with SF-295, 79.4 µM (inactive). In addition, the results for the GI50 in the assay with M14 and in the assay with HOP-92 were > 100 µM (inactive) and 29.1 µM (inactive), respectively.
